This passage reports IC50 results from PMC11497361 (Current Research in Microbial Sciences, 2024).

The target in the test is WNV NS5 WT. The test can be described thus: MTase-Glo luminescence methyltransferase assay. It counts as biochemical, Orthoflavivirus nilense. The following applies: poly-A RNA acceptor, 20 µM SAM, pH 9, 30 °C, 25 min; MTase activity.

`Nc1ncnc2c1ncn2[C@@H]1O[C@H](CNC(=O)C(c2ccccc2)(c2ccccc2)c2ccccc2)[C@@H](O)[C@H]1O` [compound 1, 5´-(2,2,2-triphenylacetamide)-5´-deoxyadenosine]: the IC50 was 21.6 ± 11.1 µM.
For the compound `Nc1ncnc2c1ncn2[C@@H]1O[C@H](C[C@@H](N)CC[C@H](N)C(=O)O)[C@@H](O)[C@H]1O` [sinefungin], half-maximal inhibition (IC50) was put at 3.6 ± 1.8 µM.
